Legend:
Pythium ultimum = experiment: Protection of corn against infestation with Pythium ultimum (seed treatment, infested small-parcel fields); type: in vivo; conditions: corn seed treated with triticonazole 5 gai/100 kg alone; based on a weighted 0-5 infection scale; untreated control 70
Description: An isolate of Pythium ultimum originally isolated from maize was grown on potatoe dex-trose agar (PDA) at 22° C. in the dark for 14 days. A vermiculate/maize meal/distilled water mixture (2.7:1:1) was autoclaved at 121° C. for 30 minutes in polyethylene “auto-clave” bags. Once cool, the mixture was inoculated with 40×5 mm^2 agar disks cut from the Pyhtium ultimum cultures and mixed well. The inoculum bags were sealed and then incubated for 14 days at 21° C. for 14 days in the dark. Successful growth was checked by extracting granules of vermiculate and plating on PDA. Infested soil was prepared by mixing peat: sharp washed sand (3:1) removing any large peat clumps, adding maize meal mixture (40:60 v/v) and combining the two well.
Corn seed was either treated with a slurry comprising triticonazole and/or prochloraz in water so that the amounts indicated below were applied per 100 kg of seed, or left untreated (control). Small-parcel fields (1×2 m) were infested with Pythium ultimum as described above. After sowing and emergence the seedlings the disease index (based on a weighted 0-5 infection scale) was determined.

Rhizoctonia solani = experiment: Protection of corn against infestation with Rhizoctonia solani (seed treatment, infested small-parcel fields); type: in vivo; conditions: corn seed treated with triticonazole 5 gai/100 kg alone; seedlings surviving (from 50) after sowing and emergence; untreated control 46
Description: An isolate of Rhizoctonia solani originally isolated from maize was grown on potatoe dextrose agar (PDA) at 20° C. in the dark for 14 days. A vermiculite/maize meal/distilled water mixture (2.7:1:1) was autoclaved at 121° C. for 30 minutes in poly-ethylene “autoclave” bags. Once cool, the mixture was inoculated with 40×5 mm^2 agar disks cut from the Rhizoctonia solani cultures and mixed well. The inoculum bags were sealed and then incubated for 14 days at 22° C. with 16 hours light and 8 hours dark periods. Successful growth was checked by extracting granules of vermiculate and plating on PDA. Infested soil was prepared by mixing peat: sharp washed sand (3:1), removing any large peat clumps, adding maize meal mixture (9:1) and combining the two wells.
Corn seed was either treated with a slurry comprising triticonazole and/or prochloraz in water so that the amounts indicated below were applied per 100 kg of seed, or left untreated (control). Small-parcel fields (1×2 m) were infested with Rhizoctonia solani as described above. After sowing and emergence the number of seedlings surviving (from 50) was determined.

CC1(C)CC/C(=C\c2ccc(Cl)cc2)C1(O)Cn1cncn1 (centres unmarked) [Triticonazole, (E)-5-(4-chlorbenzyliden)-2,2-dimethyl-1-(1H-1,2,4-triazol-1-ylmethyl)cyclopentanol]
Disease index (Pythium ultimum): 71%
Percentage of plants surviving (Rhizoctonia solani): 36%
